Values quoted from earlier work as cited in paper PMC9851200, “Multiparameter phenotypic screening for endogenous TFEB and TFE3 translocation identifies novel chemical series modulating lysosome function” (Autophagy, 2022).

Tests used:
Parameters in all cases: method as in original PKIS2 published data
[1] = molecular target: kinases (KINOMEscan panel) (Homo sapiens, UniProt P80192); conditions: Published KINOMEscan; ref original PKIS2 published data; cited from earlier work
[2] = molecular target: kinases (KINOMEscan panel) (Homo sapiens, UniProt O96017); conditions: kinase CHEK2; Published KINOMEscan; ref original PKIS2 published data; cited from earlier work
kinases (KINOMEscan panel) (Homo sapiens, UniProt O96017), sequence (O96017 whole entry): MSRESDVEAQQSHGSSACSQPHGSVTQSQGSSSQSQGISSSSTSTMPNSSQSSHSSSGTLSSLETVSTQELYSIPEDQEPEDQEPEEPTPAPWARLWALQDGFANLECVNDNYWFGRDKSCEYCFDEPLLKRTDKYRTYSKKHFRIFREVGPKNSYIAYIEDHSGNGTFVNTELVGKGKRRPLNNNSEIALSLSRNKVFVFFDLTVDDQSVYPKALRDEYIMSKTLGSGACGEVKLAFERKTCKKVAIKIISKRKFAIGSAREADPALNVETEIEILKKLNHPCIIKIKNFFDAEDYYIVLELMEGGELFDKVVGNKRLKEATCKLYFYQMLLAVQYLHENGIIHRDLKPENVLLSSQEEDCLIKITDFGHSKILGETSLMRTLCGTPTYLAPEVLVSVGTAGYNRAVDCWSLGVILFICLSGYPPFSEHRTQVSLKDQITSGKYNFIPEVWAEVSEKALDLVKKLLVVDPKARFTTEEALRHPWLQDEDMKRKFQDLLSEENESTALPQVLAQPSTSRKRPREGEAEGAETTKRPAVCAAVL

[3] = molecular target: kinases (KINOMEscan panel) (Homo sapiens, UniProt Q8TDX7); conditions: NEK7; Published KINOMEscan; ref original PKIS2 published data; cited from earlier work
kinases (KINOMEscan panel) (Homo sapiens, UniProt Q8TDX7), sequence (Q8TDX7 whole entry): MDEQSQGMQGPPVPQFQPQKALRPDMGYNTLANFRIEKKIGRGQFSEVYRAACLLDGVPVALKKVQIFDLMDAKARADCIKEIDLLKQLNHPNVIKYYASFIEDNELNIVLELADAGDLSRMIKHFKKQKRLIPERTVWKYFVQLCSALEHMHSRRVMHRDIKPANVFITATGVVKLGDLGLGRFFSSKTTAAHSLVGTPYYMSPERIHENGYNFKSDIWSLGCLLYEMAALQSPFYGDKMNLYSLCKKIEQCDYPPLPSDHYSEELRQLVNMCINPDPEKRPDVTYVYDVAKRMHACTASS

[4] = molecular target: kinases (KINOMEscan panel) (Homo sapiens, UniProt P41240); conditions: kinase CSK; Published KINOMEscan; ref original PKIS2 published data; cited from earlier work
kinases (KINOMEscan panel) (Homo sapiens, UniProt P41240), sequence (P41240 whole entry): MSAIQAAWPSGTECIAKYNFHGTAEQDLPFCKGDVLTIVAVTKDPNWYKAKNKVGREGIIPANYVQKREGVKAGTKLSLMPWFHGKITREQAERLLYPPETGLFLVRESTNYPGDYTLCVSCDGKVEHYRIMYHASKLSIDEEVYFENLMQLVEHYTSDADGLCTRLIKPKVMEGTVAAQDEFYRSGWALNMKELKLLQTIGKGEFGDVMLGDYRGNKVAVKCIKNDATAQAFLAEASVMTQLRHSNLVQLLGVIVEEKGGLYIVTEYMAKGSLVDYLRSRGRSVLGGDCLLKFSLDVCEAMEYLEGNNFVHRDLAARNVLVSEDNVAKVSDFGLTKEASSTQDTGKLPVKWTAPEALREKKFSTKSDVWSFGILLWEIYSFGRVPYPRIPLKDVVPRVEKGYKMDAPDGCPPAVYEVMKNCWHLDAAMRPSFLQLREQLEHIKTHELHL

[5] = molecular target: T1, kinases (KINOMEscan panel) (Homo sapiens, UniProt Q8N752); conditions: CSNK1A1L; Published KINOMEscan; ref original PKIS2 published data; cited from earlier work
T1 sequence (Q8N752 1-337): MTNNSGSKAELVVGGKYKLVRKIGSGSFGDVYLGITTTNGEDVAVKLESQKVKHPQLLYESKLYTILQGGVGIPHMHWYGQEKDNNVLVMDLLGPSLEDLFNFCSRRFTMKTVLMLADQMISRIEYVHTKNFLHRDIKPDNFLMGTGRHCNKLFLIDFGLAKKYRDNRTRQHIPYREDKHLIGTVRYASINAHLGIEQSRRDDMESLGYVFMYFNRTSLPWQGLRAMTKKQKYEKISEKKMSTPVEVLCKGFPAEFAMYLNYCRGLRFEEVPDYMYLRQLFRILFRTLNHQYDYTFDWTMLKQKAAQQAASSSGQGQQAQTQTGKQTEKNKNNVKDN

[6] = molecular target: T2, kinases (KINOMEscan panel) (Homo sapiens, UniProt O76039); conditions: kinase CDKL5; Published KINOMEscan; ref original PKIS2 published data; cited from earlier work
T2 sequence (O76039 1-960): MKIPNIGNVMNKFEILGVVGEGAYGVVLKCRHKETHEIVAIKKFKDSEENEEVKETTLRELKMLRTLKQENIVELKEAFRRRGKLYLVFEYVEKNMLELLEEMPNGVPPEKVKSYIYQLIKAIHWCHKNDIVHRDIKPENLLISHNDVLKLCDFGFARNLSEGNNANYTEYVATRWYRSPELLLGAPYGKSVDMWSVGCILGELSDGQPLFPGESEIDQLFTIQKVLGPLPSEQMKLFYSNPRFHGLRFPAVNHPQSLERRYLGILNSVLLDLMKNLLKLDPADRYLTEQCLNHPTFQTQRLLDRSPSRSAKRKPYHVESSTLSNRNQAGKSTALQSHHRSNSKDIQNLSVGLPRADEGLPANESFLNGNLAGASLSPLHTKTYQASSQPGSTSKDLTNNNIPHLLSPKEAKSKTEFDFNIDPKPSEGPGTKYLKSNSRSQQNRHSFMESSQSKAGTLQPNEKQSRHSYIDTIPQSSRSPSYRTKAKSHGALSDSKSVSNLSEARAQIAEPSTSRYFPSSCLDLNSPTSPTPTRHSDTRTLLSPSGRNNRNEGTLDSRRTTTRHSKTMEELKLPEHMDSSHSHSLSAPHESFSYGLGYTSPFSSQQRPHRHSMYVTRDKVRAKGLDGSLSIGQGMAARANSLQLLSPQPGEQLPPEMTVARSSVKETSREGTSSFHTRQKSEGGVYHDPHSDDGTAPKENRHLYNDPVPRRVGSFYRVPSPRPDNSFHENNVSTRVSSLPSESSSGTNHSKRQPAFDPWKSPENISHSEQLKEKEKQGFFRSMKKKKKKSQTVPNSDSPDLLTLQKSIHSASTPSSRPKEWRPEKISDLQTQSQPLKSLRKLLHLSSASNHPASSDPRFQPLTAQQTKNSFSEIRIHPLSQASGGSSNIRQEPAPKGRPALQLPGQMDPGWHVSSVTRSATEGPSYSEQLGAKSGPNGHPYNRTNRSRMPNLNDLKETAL

[7] = molecular target: kinases (KINOMEscan panel) (Homo sapiens, UniProt Q96NX5); conditions: CAMK1G; Published KINOMEscan; ref original PKIS2 published data; cited from earlier work
kinases (KINOMEscan panel) (Homo sapiens, UniProt Q96NX5), sequence (Q96NX5 whole entry): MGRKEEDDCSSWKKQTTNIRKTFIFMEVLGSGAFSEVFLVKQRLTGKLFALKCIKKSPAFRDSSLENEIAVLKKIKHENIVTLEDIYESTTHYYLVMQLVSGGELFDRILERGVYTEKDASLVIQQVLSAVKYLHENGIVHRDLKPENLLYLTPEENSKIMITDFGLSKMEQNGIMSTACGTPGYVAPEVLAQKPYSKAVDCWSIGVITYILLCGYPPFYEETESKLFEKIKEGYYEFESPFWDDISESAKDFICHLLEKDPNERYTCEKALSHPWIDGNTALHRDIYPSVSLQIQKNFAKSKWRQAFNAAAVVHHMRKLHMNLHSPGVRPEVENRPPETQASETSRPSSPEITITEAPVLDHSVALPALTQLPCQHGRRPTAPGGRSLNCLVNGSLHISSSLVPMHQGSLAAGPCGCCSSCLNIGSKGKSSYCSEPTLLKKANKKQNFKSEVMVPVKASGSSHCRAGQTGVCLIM

[8] = molecular target: kinases (KINOMEscan panel) (Homo sapiens, UniProt Q13705); conditions: kinase ACVR2B; Published KINOMEscan; ref original PKIS2 published data; cited from earlier work
kinases (KINOMEscan panel) (Homo sapiens, UniProt Q13705), sequence (Q13705 19-512): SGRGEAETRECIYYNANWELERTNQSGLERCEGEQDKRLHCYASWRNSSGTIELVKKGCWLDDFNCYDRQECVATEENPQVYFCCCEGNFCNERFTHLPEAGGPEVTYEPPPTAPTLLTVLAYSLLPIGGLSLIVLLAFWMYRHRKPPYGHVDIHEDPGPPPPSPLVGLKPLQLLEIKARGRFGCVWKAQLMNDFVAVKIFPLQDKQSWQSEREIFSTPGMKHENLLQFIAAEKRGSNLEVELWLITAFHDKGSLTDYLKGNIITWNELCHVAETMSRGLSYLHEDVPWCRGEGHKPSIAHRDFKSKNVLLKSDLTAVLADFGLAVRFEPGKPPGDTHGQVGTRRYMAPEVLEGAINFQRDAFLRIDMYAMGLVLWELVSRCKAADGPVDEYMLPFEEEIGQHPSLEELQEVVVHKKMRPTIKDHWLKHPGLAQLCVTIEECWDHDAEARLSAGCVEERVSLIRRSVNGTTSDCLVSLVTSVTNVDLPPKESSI

[9] = molecular target: kinases (KINOMEscan panel) (Homo sapiens, UniProt Q05655); conditions: kinase PRKCD; Published KINOMEscan; ref original PKIS2 published data; cited from earlier work
kinases (KINOMEscan panel) (Homo sapiens, UniProt Q05655), sequence (Q05655 whole entry): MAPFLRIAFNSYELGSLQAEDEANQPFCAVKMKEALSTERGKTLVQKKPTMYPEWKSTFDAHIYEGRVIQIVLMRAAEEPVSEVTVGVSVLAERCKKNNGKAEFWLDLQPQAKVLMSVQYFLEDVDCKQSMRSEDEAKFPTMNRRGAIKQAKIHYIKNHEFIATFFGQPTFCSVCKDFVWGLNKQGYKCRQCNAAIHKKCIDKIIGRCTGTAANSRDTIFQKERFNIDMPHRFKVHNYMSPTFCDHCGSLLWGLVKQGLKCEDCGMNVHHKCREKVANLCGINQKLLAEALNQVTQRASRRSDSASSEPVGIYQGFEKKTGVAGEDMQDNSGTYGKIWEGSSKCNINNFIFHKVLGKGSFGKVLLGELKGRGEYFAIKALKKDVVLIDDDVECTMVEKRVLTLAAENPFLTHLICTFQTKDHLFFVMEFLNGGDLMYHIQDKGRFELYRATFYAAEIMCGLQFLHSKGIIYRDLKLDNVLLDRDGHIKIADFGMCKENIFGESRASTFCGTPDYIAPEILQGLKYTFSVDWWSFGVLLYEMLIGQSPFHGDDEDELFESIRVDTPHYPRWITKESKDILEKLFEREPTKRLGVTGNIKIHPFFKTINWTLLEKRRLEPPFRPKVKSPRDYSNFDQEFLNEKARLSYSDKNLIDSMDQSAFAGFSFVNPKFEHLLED

[10] = molecular target: T3, kinases (KINOMEscan panel) (Homo sapiens, UniProt Q96BR1); conditions: kinase SGK3; Published KINOMEscan; ref original PKIS2 published data; cited from earlier work
T3 sequence (Q96BR1 1-496): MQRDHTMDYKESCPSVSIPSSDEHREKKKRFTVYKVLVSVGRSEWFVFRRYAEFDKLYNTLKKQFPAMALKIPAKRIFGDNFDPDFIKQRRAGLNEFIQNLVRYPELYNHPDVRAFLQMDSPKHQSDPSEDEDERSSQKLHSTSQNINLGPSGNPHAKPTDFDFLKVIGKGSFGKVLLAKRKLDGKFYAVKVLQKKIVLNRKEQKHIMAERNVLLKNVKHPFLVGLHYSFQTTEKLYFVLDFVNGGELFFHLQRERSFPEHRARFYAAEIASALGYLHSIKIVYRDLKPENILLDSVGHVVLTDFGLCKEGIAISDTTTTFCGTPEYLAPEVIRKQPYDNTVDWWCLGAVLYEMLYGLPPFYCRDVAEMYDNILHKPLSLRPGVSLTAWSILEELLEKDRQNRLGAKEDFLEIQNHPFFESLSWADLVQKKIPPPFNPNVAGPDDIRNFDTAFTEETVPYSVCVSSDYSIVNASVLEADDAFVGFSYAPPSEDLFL

[11] = molecular target: kinases (KINOMEscan panel) (Homo sapiens, UniProt P30291); conditions: WEE1; Published KINOMEscan; ref original PKIS2 published data; cited from earlier work
kinases (KINOMEscan panel) (Homo sapiens, UniProt P30291), sequence (P30291 whole entry): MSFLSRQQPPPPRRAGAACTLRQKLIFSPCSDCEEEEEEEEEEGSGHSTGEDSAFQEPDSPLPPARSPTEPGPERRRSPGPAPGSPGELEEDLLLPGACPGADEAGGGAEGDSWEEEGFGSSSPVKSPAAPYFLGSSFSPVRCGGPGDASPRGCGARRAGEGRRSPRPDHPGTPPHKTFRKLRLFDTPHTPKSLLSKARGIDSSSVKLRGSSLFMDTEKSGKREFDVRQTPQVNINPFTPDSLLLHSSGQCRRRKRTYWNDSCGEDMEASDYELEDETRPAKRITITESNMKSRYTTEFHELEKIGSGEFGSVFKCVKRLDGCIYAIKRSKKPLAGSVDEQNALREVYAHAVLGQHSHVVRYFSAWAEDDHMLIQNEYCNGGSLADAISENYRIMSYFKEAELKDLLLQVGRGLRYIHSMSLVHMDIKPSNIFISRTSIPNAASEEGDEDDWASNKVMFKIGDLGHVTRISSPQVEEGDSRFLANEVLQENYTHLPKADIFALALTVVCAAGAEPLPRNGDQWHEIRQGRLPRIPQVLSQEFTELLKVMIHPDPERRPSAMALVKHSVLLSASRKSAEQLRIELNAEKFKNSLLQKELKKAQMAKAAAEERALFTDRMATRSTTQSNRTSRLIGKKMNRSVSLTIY

kinases (KINOMEscan panel) (Homo sapiens, UniProt P80192), sequence (P80192 whole entry): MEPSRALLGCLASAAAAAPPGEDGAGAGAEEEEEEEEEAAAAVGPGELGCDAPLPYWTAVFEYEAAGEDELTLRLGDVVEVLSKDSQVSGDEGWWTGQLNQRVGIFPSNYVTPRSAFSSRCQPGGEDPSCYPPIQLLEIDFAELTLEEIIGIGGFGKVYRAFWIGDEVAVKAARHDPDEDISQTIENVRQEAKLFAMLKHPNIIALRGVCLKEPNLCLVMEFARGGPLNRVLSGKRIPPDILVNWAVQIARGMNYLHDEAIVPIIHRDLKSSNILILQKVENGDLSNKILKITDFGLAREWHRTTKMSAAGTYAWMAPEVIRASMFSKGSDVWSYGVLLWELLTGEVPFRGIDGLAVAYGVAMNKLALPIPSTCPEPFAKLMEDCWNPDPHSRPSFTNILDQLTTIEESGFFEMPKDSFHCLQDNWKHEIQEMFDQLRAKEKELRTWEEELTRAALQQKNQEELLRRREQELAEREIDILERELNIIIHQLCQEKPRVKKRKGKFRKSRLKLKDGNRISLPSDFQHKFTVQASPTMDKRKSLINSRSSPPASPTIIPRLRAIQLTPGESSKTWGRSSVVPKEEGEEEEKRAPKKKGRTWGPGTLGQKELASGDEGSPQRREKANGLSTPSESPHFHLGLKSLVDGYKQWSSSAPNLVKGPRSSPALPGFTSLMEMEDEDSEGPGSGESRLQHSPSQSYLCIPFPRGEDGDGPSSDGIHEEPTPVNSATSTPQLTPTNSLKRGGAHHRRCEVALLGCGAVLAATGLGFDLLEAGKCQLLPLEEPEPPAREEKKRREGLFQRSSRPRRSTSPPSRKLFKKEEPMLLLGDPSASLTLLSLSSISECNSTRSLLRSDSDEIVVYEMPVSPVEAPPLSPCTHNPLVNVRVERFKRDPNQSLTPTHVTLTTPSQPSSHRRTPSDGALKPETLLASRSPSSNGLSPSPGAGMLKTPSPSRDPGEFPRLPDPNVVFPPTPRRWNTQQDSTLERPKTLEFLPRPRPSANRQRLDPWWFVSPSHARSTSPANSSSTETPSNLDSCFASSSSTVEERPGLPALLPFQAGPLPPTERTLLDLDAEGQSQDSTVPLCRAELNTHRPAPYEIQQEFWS

Cc1cccc(-c2nc(Nc3ccncc3)c3ccccc3n2)n1 [NK215]
KINOMEscan MAP3K9 [1]: 11 | KINOMEscan CHEK2 [2]: 0 | KINOMEscan NEK7 [3]: 0 | KINOMEscan CSK [4]: 4 | KINOMEscan CSNK1A1L [5]: 10 | KINOMEscan CDKL5 [6]: 0 | KINOMEscan CAMK1G [7]: 0 | KINOMEscan ACVR2B [8]: 36 | KINOMEscan PRKCD [9]: 29 | KINOMEscan SGK3 [10]: 0 | KINOMEscan WEE1 [11]: 23
